We go through three compounds from US20040068005A1, “Pharmaceutical combinations” (priority 2000, published 2004).

Assay [1] deals with normal conscious rabbits. Description: Hyperinsulinaemic euglycaemic glucose clamping (insulin sensitivity), normal rabbits. In kind it is in vivo, New Zealand white rabbits. The method, then: (§1) The experiments are carried out with adult, male New Zealand white rabbits, weighing 3.0-3.5 kg, housed as described in Am. J. Physiol 1994, Heart Circ. Physiol, 35: H2033-H2041 and J. Moll Cell.. Cardiol. 1997, 29: 1977-1983.
(§2) To estimate insulin sensitivity and/or insulin resistance, hyperinsulinaemic (100 eU/ml) euglycaemic (5.5 mM/l) glucose clamping was used. The glucose clamping values (M) were established as values of glucose infusion rates expressed in mg/kg/min to maintain blood glucose level at 5.5 mM/l.

For assay [2], the system named is hypercholesterolaemic, insulin resistant conscious rabbits. In words: Hyperinsulinaemic euglycaemic glucose clamping (insulin sensitivity), hypercholesterolaemic rabbits. In kind it is in vivo, New Zealand white rabbits. The conditions noted are these: for Glucose infusion rate / M values of hyperinsulinaemic and euglycaemic glucose clamping: hypercholesterolaemic; for Glucose infusion rate: insulin resistant rabbit; for Insulin sensitivity: percent of means, control = 100. The method, then:
(§3) The experiments are carried out with adult, male New Zealand white rabbits, weighing 3.0-3.5 kg, housed as described in Am. […] Physiol, 35: H2033-H2041 and J. Moll Cell.. Cardiol.
as §2

The subject of assay [3] is normal conscious rabbits. Description: Ventricular pacing-induced myocardial ischaemia (ST-segment elevation), normal rabbits. In kind it is in vivo, New Zealand white rabbits. The method, then: as §3
(§4) The induction of global myocardial ischaemia was based on a method described as above.

For assay [4], the system named is human. Conditions: controlled release ISMN preparations; cited from earlier work.
Assay [5] deals with healthy volunteers. In words: Oral glucose tolerance test (OGTT) with nitroglycerin patch, plasma glucose and immunoreactive insulin. In kind it is in vivo, human. The conditions noted are these: for Insulin / Glucose: OGTT. The protocol: Twenty persons were studied.
Between 2 oral glucose, tolerance tests (OGTT) the volunteers were randomized for receiving either active NITRODERM TTS 10 (releasing approx. 0.4 mg hours^−1 nitroglycerin) or placebo patches. The study was carried out and evaluated in a double blind fashion. The patients received the glucose solution at 8 a.m. Venous blood samples were taken during fasting (immediately before glucose) and at 15, 30, 60, 90, 120 and 180 minutes after the glucose load. The samples evaluated for plasma glucose level (mmol 1^−1) and immunoreactive insulin responses (eU ml^−1). Plasma glucose was determined by means of an autoanalyzer, using the glucoseoxidease method. Immunoreactive insulin levels were assessed by radioimmunoassay method using antihuman antibody. During the study, two ECG leads (II and V1 or V6) and arterial blood pressure were continuously monitored.

In assay [6] the test system is streptozotocin diabetic rabbits. Description: Femoral nerve conduction velocity, streptozotocin diabetes. Format: in vivo, New Zealand white rabbits. The protocol:
as §1
These series of experiments were carried out to verify/exclude sensory neuropathy. Left saphenous nerve conduction velocity was determined as described in Eur J. Pharmacol 1999, 386:83-88.
Streptozotocin (40 mg/kg i.v.) produced a decrease in nerve conduction velocity in femoral “A” and “C” fibres, respectively, as determined 8 weeks after streptozotocin injection. […] The combination of any of these drugs with nitroglycerin yielded an improvement of conduction velocity in streptozotocin-diabetic aminals similar to that seen with nitroglycerin alone.

In assay [7] the test system is hypercholesterolaemic, insulin resistant rabbits. In words: Femoral nerve conduction velocity, hyperlipidaemia-induced insulin resistance. Format: in vivo, New Zealand white rabbits. The protocol: as §3
These series of experiments were carried out to verify/exclude sensory neuropathy.

Assay [8] relates to hypercholesterolaemic, insulin resistant conscious rabbits. Description: Ventricular pacing-induced myocardial ischaemia (ST-segment elevation), hypercholesterolaemic rabbits. The conditions noted are these: hypercholesterolaemic. In kind it is in vivo, New Zealand white rabbits. The protocol:
as §3, §4

The subject of assay [9] is isolated pancreatic islets. Conditions: Am. J. Physiol 1996;271;C1098-C1102; cited from earlier work.
The mark [10] stands for this setting: normal rabbits, 2 mg/kg per os ISMN.
Setting [11] is: normal rabbits, 2 mg/kg per os controlled release ISMN.
Where [12] appears, read: normal rabbits, 4 mg/kg per os controlled release ISMN.
The mark [13] stands for this setting: sampling 0 (control), active patch approx. 0.4 mg/hour nitroglycerin, n=20.
The mark [14] stands for this setting: Table I, sampling 0 (control), active patch.

As for `O=[N+]([O-])O[C@@H]1CO[C@H]2[C@@H]1OC[C@@H]2O` [ISMN, isosorbide-5-mononitrate], the Glucose infusion rate stood at 16.30 ± 0.8200 mg/kg/min in [1] (normal rabbit, metformin 100 mg/kg p.os, ISMN controlled release 5 mg/kg p.os); 14.2 ± 0.8 mg/kg/min in [1] (normal rabbits, 1 mg/kg per os controlled release ISMN, control 13.6); 16.0 ± 0.9 mg/kg/min in [1] (setting [11]); 16.3 ± 1.0 mg/kg/min in assay [1] (setting [12]); 14.00 ± 0.8900 mg/kg/min in [2] (metformin 100 mg/kg p.os, ISMN controlled release 5 mg/kg p.os). The “metabolic (insulin sensitising) and anti-ischaemic effect” value in [1] (normal rabbits, 1 mg/kg per os ISMN) is given as “without any effect”. In assay [1] (setting [10]), the “metabolic (insulin sensitising) effect” value is reported as “significant metabolic effect”. In addition, the “metabolic and anti-ischaemic effects” value in assay [1] (normal rabbits, 4 mg/kg and higher doses per os ISMN) is “metabolic and anti-ischaemic effects”. Also, the “M values of hyperinsulinaemic and euglycaemic glucose clamping” value in assay [1] (normal rabbits, drug alone vs control, isosorbide-5-mononitrate 1 mg/kg/day (Olicard 40), metformin 100 mg/kg/day p.os over 3 days) was “increased”; in assay [2] (insulin resistant rabbits vs control, ISMN 5 mg/kg/day (Olicard 40), metformin 100 mg/kg/day p.os over 3 days), “significantly increased”. Further, in assay [1] (normal rabbits, per os ISMN), the “threshold dose of insulin sensitising effect as share of the threshold dose of the anti-ischaemic effect” value worked out at 50%. Further, the “threshold dose of the insulin sensitising effect” value in assay [1] (normal rabbits, per os extended-release ISMN) was 2 mg/kg. For the same compound, the Insulin sensitivity in [2] (ISMN controlled release 5 mg/kg p.os, metformin 100 mg/kg p.os) came to 144.4%. Also, the ST-segment elevation is recorded as 2.0 ± 0.09 mV in [3] (normal rabbits, 1 mg/kg per os controlled release ISMN, control 2.0); 1.9 ± 0.16 mV in assay [3] (setting [11]); 1.4 ± 0.12 mV in assay [3] (setting [12]). For the same compound, in assay [3] (setting [10]), the “anti-ischaemic effect (changes in ST-segment elevation)” value is recorded as “statistically insignificant anti-ischaemic effect”. In addition, the threshold anti-anginal dose in assay [4] is given as 30 mg/day.

For `O=[N+]([O-])OCC(CO[N+](=O)[O-])O[N+](=O)[O-]` [Nitroglycerin, nitroglycerin], the Insulin in assay [5] (15 min, active patch) is 38.9 ± 4.4^#+ μU ml^−1; in [5] (30 min, active patch), 36.3 ± 5.0^#+ μU ml^−1; in [5] (60 min, active patch), 25.6 ± 3.3^#+ μU ml^−1; in [5] (90 min, active patch), 24.1 ± 2.9^#+ μU ml^−1; in assay [5] (120 min, active patch), 15.2 ± 2.4^+ μU ml^−1; in assay [5] (180 min, active patch), 14.4 ± 2.6^ μU ml^−1. Further, the Insulin in [5] (setting [13]) is listed as 8.2 ± 0.9^ μU ml^−1; in assay [5] (Table I, 15 min, active patch), 38.9 ± 4.4 μU mL^−1; in assay [5] (Table I, 30 min, active patch) it was 36.3 ± 5.0 μU mL^−1; in [5] (Table I, 60 min, active patch), 25.6 ± 3.3 μU mL^−1; in assay [5] (Table I, 90 min, active patch), 24.1 ± 2.9 μU mL^−1; in assay [5] (Table I, 120 min, active patch), 15.2 ± 2.4 μU mL^−1. The Insulin in assay [5] (Table I, 180 min, active patch) amounted to 14.4 ± 2.6 μU mL^−1; in [5] (setting [14]), 8.2 ± 0.9 μU mL^−1. Also, the Glucose in assay [5] (15 min after glucose load, active patch) is 7.3 ± 1.1^+ mmol l^−1; in assay [5] (30 min, active patch), 6.1 ± 0.6^+ mmol l^−1; in assay [5] (60 min, active patch), 5.5 ± 0.4 mmol/L; in assay [5] (90 min, active patch), 4.7 ± 0.7 mmol/L; in assay [5] (120 min, active patch), 4.2 ± 0.3 mmol/L; in assay [5] (180 min, active patch), 4.5 ± 0.5 mmol/L. Besides, the Glucose in assay [5] (setting [13]) amounted to 4.2 ± 0.3 mmol/L; in assay [5] (Table I, 15 min, active patch), 7.3 ± 1.1 mmol⁻¹; in [5] (Table I, 30 min, active patch) it was 6.1 ± 0.6 mmol⁻¹; in assay [5] (Table I, 60 min, active patch) it was 5.5 ± 0.4 mmol⁻¹; in assay [5] (Table I, 90 min, active patch), 4.7 ± 0.7 mmol⁻¹; in [5] (Table I, 120 min, active patch), 4.2 ± 0.3 mmol⁻¹. The Glucose in [5] (Table I, 180 min, active patch) stood at 4.5 ± 0.5 mmol⁻¹; in assay [5] (setting [14]), 4.2 ± 0.3 mmol⁻¹. Moreover, the plasma glucose levels entry in [5] (active vs placebo patch group) is given as “no differences”. Also, the “increase in insulin in response to oral glucose load” value in [5] (compared to placebo patch group) is on record as “significantly decreased”. Further, the Glucose infusion rate was determined as 16.857 mg/kg/min in [1] (normal rabbit, with active patch (nitroglycerin 0.07 mg/kg/h), alone (Control) or together with the drug, troglitazon 70 mg/kg p.os, metformin 5 mg/kg i.v., glibenclamide 1 mg/kg i.v., idazoxan 2 mg/kg i.v.) and 12.667 mg/kg/min in assay [2] (with active patch (nitroglycerin 0.07 mg/kg/h), alone (Control) or together with the drug, same doses). Further, in [2] (insulin resistant rabbits, nitroglycerin (0, 0.7 mg/kg/h) alone), the “M values of hyperinsulinaemic and euglycaemic glucose clamping” value is reported as “increased”. The Insulin sensitivity in assay [2] (nitroglycerin patch 0.07 mg/kg/h, metformin 5 mg/kg i.v., troglitazon 70 mg/kg p.os) is on record as 140.7%. Besides, the Nerve conduction velocity worked out at 3.6 ± 0.2 dm/s in assay [6] (femoral “C” fibers, streptozotocin diabetic rabbit, with active patch (nitroglycerin 0.07 mg/kg/h), alone (Control) or with the drug) and 4.3 ± 0.4 dm/s in assay [7] (femoral “C” fibers, hypercholesterolaemic, insulin resistant rabbit, with active patch (nitroglycerin 0.07 mg/kg/h), alone (Control) or with troglitazon 70 mg/kg p.os). The “nerve conduction in “C” fibres” value in assay [6] (streptozotocin-diabetes model, drug alone, nitroglycerin 12-h patch on vs 12-h patch off over three days) is given as “significantly improved”. Moreover, the ““A” fibre conduction” value in assay [6] (streptozotocin-diabetes model, nitroglycerin patch, data not shown) is reported as “marginal amelioration”. Moreover, in assay [7] (eight-week atherogenic diet, drug alone), the “decrease in nerve conduction velocity in “C” fibres after atherogenic diet” value is reported as “attenuated”. Moreover, the “intracavitary ST-segment elevation” value in [3] (normal conscious rabbits, drug alone) is recorded as “significantly decreased”. Further, the ST-segment elevation in [3] (normal rabbit, with active patch (nitroglycerin 0.07 mg/kg/h), alone (Control) or with the drug) turned out to be 0.7 ± 0.10 mV; in [8] (insulin resistant rabbit, with active patch (nitroglycerin 0.07 mg/kg/h), alone (Control) or with the drug) it was 1.4 ± 0.10 mV. Further, in assay [8] (insulin resistant rabbits, drug alone), the “intracavitary ST-segment elevation / ischaemic changes produced by VOP” value is “significantly decreased”.

In the case of `N=c1c[n+](N2CCOCC2)[n-]o1` [SIN-1, 3-morpholinosydnonimine], the insulin release result in assay [9] was “inhibit insulin release”.
